Assay results from PMC10330904 (Toxicology and applied pharmacology, 2023).
pIC50: −log10 of the molar value.

Legend:
[1] = tested on: Acetylcholinesterase (AChE) (biochemical); conditions: cited from earlier work; for pIC50: read-out: tox21-ache-p5 (IC50)
[2] = biological target: Acetylcholinesterase (AChE) (with human microsomes); conditions: read-out: tox21-ms-ache-p2 (IC50); cited from earlier work
[3] = tested on: cell viability counter screens

| Compound | tox21-ache-p5 (IC50) [1] | pIC50 [2] | pIC50 [1] | viability assay hit rate [3] |
| --- | --- | --- | --- | --- |
| CCOP(=S)(Oc1ccc([N+](=O)[O-])cc1)c1ccccc1 (centres unmarked) | inactive | 5.70 | – | – |
| CCOP(=S)(OCC)SCn1nnc2ccccc2c1=O [Azinphos-ethyl] | – | 6.60 | 4.45 | – |
| CCOP(=S)(OCC)Oc1nc(Cl)c(Cl)cc1Cl [Chlorpyrifos] | – | 6.60 | 4.10 | – |
| CCOP(=S)(OCC)Oc1ccc2c(C)c(Cl)c(=O)oc2c1 [Coumaphos] | – | 5.97 | 4.27 | – |
| CCOP(=S)(OCC)SC(CCl)N1C(=O)c2ccccc2C1=O (centres unmarked) [Dialifor] | – | 5.85 | 4.20 | – |
| COP(N)(=S)Oc1ccccc1C(=O)OC(C)C (centres unmarked) [Isocarbophos] | inactive | 5.55 | – | – |
| CCOP(=S)(OCC)Oc1ccc([N+](=O)[O-])cc1 [Parathion] | – | 6.13 | 4.61 | – |
| CCOP(=S)(OCC)SCn1c(=O)oc2cc(Cl)ccc21 [Phosalone] | inactive | 5.23 | – | – |
| CCOP(=S)(OCC)O/N=C(\C#N)c1ccccc1 [Phoxim] | – | 5.78 | 4.25 | – |
| CCOP(=S)(OCC)Oc1cnc2ccccc2n1 [Quinalphos] | – | 6.00 | 4.10 | – |
| CCOP(=S)(OCC)SCSC(C)(C)C [Terbufos] | inactive | 4.32 | – | – |
| Oc1c(Cl)cc(Cl)cc1Sc1cc(Cl)cc(Cl)c1O [bithionol] | – | – | – | 98.78% |
| [H]/N=C(\N/C(=N/[H])NCCCCCCNC(=N)NC(=N)Nc1ccc(Cl)cc1)Nc1ccc(Cl)cc1 [chlorhexidine] | – | – | – | 97.56% |
| O=C1C(Cl)=C(Cl)C(=O)c2ccccc21 [dichlone] | – | – | – | 97.56% |
| Oc1c(Cl)cc(Cl)c(Cl)c1Cc1c(O)c(Cl)cc(Cl)c1Cl [hexachlorophene] | – | – | – | 97.56% |
| CC1=CC(=O)c2ccccc2C1=O [menadione] | – | – | – | 97.56% |
| Cc1cc(C(C)(C)CC(C)(C)C)ccc1OCCOCC[N+](C)(C)Cc1ccccc1.[Cl-] [methylbenzethonium chloride] | – | – | – | 97.56% |
| Oc1cc(Cl)ccc1Oc1ccc(Cl)cc1Cl [triclosan] | – | – | – | 97.56% |
